The values below come from patent publication US8975406B2, “Compound useful for the treatment of degenerative and inflammatory diseases” (Galapagos N.V., priority 2011, dated 2015).

One assay concerns the target T1, TYK2 (Homo sapiens, UniProt P29597).
T1 construct: catalytic domain (amino acids 871-1187; catalog number 08-147); GST; purchased Carna Biosciences 08-147
T1 sequence (P29597 871-1187): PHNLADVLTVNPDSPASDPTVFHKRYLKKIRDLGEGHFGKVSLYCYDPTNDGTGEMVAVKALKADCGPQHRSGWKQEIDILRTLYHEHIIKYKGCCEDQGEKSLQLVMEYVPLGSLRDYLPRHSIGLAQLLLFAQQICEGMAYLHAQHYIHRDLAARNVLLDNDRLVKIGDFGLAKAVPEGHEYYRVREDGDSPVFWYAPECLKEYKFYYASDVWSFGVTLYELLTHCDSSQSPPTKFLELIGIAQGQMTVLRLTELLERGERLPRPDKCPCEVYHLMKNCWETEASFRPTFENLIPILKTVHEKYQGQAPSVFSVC
The assay can be described thus: TYK2 Ki determination assay. Type of assay: biochemical. Particulars: Lineweaver-Burk plot, polyGT substrate, varying ATP. The method, then: For the determination of Ki, different amounts of compound are mixed with the enzyme and the enzymatic reaction is followed as a function of ATP concentration. The Ki is determined by means of double reciprocal plotting of Km vs compound concentration (Lineweaver-Burk plot). TYK2 (Carna Biosciences, 08-147) was used at a final concentration of 160 ng/ml. The substrate was Poly(Glu,Tyr)sodium salt (4:1), MW 20 000-50 000 (Sigma, P0275) The reaction was performed in 25 mM Hepes pH 7.2, 50 mM NaCl, 0.5 mM EDTA, 1 mM DTT, 5 mM MnCl2, 10 mM MgCl2, 0.1% Brij-35 with varying concentrations of ATP and compound and stopped by addition of 150 mM phosphoric acid. Measurement of incorporated phosphate into the substrate polyGT was done by loading the samples on a filter plate (using a harvester, Perkin Elmer) and subsequent washing. Incorporated ^33P in polyGT is measured in a Topcount scintillation counter after addition of scintillation liquid to the filter plates (Perkin Elmer).

The test system of a further assay is rat CIA model. Kind of assay: Rat collagen induced arthritis (CIA) model. Type of assay: in vivo. The following applies: dose of 0.1 mg/kg. As for the experimental part:
Completed Freund's adjuvant (CFA) and incomplete Freund's adjuvant (IFA) were purchased from Difco. Bovine collagen type II (CII), lipopolysaccharide (LPS), and Enbrel was obtained from Chondrex (Isle d'Abeau, France); Sigma (P4252, L′Isle d'Abeau, France), Whyett (25 mg injectable syringe, France) Acros Organics (Palo Alto, Calif.), respectively. All other reagents used were of reagent grade and all solvents were of analytical grade.
Dark Agouti rats (male, 7-8 weeks old) were obtained from Harlan Laboratories (Maison-Alfort, France). Rats were kept on a 12 hr light/dark cycle (0700-1900). Temperature was maintained at 22° C., and food and water were provided ad libitum.
One day before the experiment, CII solution (2 mg/mL) is prepared with 0.05 M acetic acid and stored at 4° C. Just before the immunization, equal volumes of adjuvant (IFA) and CII are mixed by a homogenizer in a pre-cooled glass bottle in an ice water bath. […]
Arthritis is scored according to the method of Khachigian 2006, Lin et al 2007 and Nishida et al. 2004). […]
The area under the curve (AUC) from day 1 to day 14 is calculated for each individual rat. The AUC of each animal is divided by the average AUC obtained for the vehicle in the study from which the data on that animal is obtained and multiplied by 100 (i.e. the AUC was expressed as a percentage of the average vehicle AUC per study). […]

A word on the Ki: it is a dissociation constant, usually derived from enzyme kinetics or from competition with a known ligand. Compound `CC(=O)Nc1cc2c(-c3ccc(CN4CCN(S(C)(=O)=O)CC4)c(F)c3)cccn2n1` [Compound 21] returned a Ki on TYK2 of 135 nM. The “normalized clinical score values (calculated as AUC or as the difference from day 1 to day 14)” value with rat CIA model was “statistically significant improvements”.
